Experimental data from ChEMBL document CHEMBL4813957, “Antitubercular properties of thiazolidin-4-ones - A review” (Eur J Med Chem, 2021).
≈ marks a conversion by molar mass, not a printed value. Structures can show the parent of a compound that is named as a salt.

What was measured:
[1] = tested on: Mycobacterium tuberculosis; experiment: Antimycobacterial activity against Mycobacterium tuberculosis H37Ra ATCC 25177 assessed as inhibition of bacteria at 30 ug/ml by XTT reduction menadione assay relative to control; format: functional
[2] = tested on: Mycobacterium tuberculosis; experiment: Antimycobacterial activity against Mycobacterium tuberculosis H37Rv ATCC 27294 by BACTEC radiometric method; format: functional
[3] = tested on: Mycobacterium tuberculosis; experiment: Antimycobacterial activity against Mycobacterium tuberculosis H37Rv incubated for 45 days by Lowenstein-Jensen method; format: functional; conditions: 1080 h, time 45 day
[4] = tested on: Mycobacterium tuberculosis; experiment: Antimycobacterial activity against Mycobacterium tuberculosis H37Rv assessed as growth inhibition at 12.5 ug/ml by BACTEC radiometric method relative to control; format: functional; conditions: read-out: GI
[5] = tested on: Mycobacterium tuberculosis; experiment: Antimycobacterial activity against Mycobacterium tuberculosis H37Rv ATCC 27294; format: functional
[6] = tested on: Mycobacterium tuberculosis; experiment: Antimycobacterial activity against Mycobacterium tuberculosis; format: functional
[7] = tested on: Mycobacterium tuberculosis; experiment: Antimycobacterial activity against Mycobacterium tuberculosis H37Rv assessed as bacterial growth inhibition at 6.25 ug/ml by BACTEC MGIT method relative to control; format: functional
[8] = tested on: Mycobacterium tuberculosis; experiment: Antimycobacterial activity against Mycobacterium tuberculosis H37Rv measured after 12 to 28 days by Lowenstein-Jensen method; format: functional; conditions: time 12-28 day
[9] = tested on: Mycobacterium tuberculosis; experiment: Antimycobacterial activity against Mycobacterium tuberculosis H37Ra ATCC 25177 by XTT Reduction Menadione assay; format: functional
[10] = tested on: Mycobacterium tuberculosis; experiment: Antimycobacterial activity against Mycobacterium tuberculosis H37Rv ATCC 27294 assessed as growth inhibition at 12.5 ug/ml by microplate alamar blue assay relative to control; format: functional; conditions: read-out: GI
[11] = tested on: Mycobacterium tuberculosis; experiment: Antimycobacterial activity against Mycobacterium tuberculosis H37Rv incubated for 7 days by microplate alamar blue assay; format: functional; conditions: 168 h, time 7 day
[12] = tested on: Mycobacterium tuberculosis; experiment: Antimycobacterial activity against Mycobacterium tuberculosis H37Rv ATCC 27294 incubated for 5 days by microplate alamar blue assay; format: functional; conditions: H37Rv ATCC 27294, 120 h, time 5 day
[13] = tested on: Mycobacterium tuberculosis; experiment: Antimycobacterial activity against Mycobacterium tuberculosis H37Rv by filter paper disc diffusion method; format: functional
[14] = tested on: Mycobacterium tuberculosis; experiment: Antimycobacterial activity against Mycobacterium tuberculosis ATCC 27286 assessed as zone of inhibition at 20 ug/ml; format: functional; conditions: read-out: IZ
[15] = tested on: Mycobacterium tuberculosis; experiment: Antimycobacterial activity against Mycobacterium tuberculosis H37Rv ATCC27294 incubated for 7 days by microplate alamar blue assay; format: functional; conditions: H37Rv ATCC 27294, 168 h, time 7 day
[16] = tested on: Mycobacterium tuberculosis; experiment: Antimycobacterial activity against Mycobacterium tuberculosis H37Rv ATCC27294 measured after 28 days by two-fold serial dilution method; format: functional; conditions: H37Rv ATCC 27294, 672 h, time 28 day
[17] = tested on: Mycolicibacterium smegmatis; experiment: Antimycobacterial activity against Mycobacterium smegmatis ATCC 35797 incubated for 48 hrs by agar dilution method; format: functional
[18] = tested on: Mycobacterium tuberculosis; experiment: Antimycobacterial activity against Mycobacterium tuberculosis H37Rv assessed as mycobacterial growth inhibition at 12.5 ug/ml relative to control; format: functional; conditions: read-out: GI
[19] = tested on: Mycobacterium tuberculosis; experiment: Antimycobacterial activity against Mycobacterium tuberculosis by microplate alamar blue assay; format: functional
[20] = tested on: Mycobacterium tuberculosis; experiment: Antimycobacterial activity against Mycobacterium tuberculosis H37Rv assessed as growth inhibition at 16 ug/ml measured after 12 to 28 days by Lowenstein-Jensen agar method relative to control; format: functional; conditions: time 12-28 day, read-out: GI
[21] = tested on: Mycobacterium tuberculosis; experiment: Antimycobacterial activity against Mycobacterium tuberculosis HN878 measured up to 2 weeks; format: functional; conditions: HN878, 336 h, time weeks <=2
[22] = tested on: Mycobacterium tuberculosis; experiment: Antimycobacterial activity against Mycobacterium tuberculosis Erdman measured up to 2 weeks; format: functional; conditions: 336 h, time weeks <=2
[23] = tested on: Mycobacterium tuberculosis; experiment: Antimycobacterial activity against Mycobacterium tuberculosis measured up to 2 weeks; format: functional; conditions: 336 h, time weeks <=2
[24] = tested on: Mycobacterium tuberculosis; experiment: Antimycobacterial activity against Mycobacterium tuberculosis H37Rv measured after 11 to 12 days; format: functional; conditions: time 11-12 day
[25] = tested on: Mycobacterium tuberculosis; experiment: Antimycobacterial activity against Mycobacterium tuberculosis H37Rv 27294 by microplate alamar blue assay; format: functional
[26] = Cytotoxicity against African green monkey Vero cells after 72 hrs by cell titer glo luminescent cell viability assay; format: cell-based; conditions: chlorocebus sabaeus
[27] = tested on: Mycobacterium tuberculosis; experiment: Antimycobacterial activity against Mycobacterium tuberculosis H37Rv assessed as growth inhibition at 6.25 ug/ml by BACTEC radiometric method relative to control; format: functional; conditions: read-out: GI
[28] = tested on: Mycobacterium tuberculosis; experiment: Antimycobacterial activity against Mycobacterium tuberculosis H37Rv assessed as inhibition of bacteria at 12.5 ug/ml measured after 12 to 28 days by Lowenstein-Jensen method relative to control; format: functional; conditions: time 12-28 day
[29] = tested on: Mycobacterium tuberculosis; experiment: Antimycobacterial activity against Mycobacterium tuberculosis H37Rv incubated for 4 weeks; format: functional; conditions: 672 h

Cc1nc(-c2cnccn2)sc1C(=O)NN1C(=O)CSC1c1ccccc1 (stereo unspecified)
inhibition at 30 µg/mL [1]: 71%

O=C(NN1C(=O)CSC1c1ccc([N+](=O)[O-])cc1)c1[nH]c2ccc(F)cc2c1-c1ccccc1 (stereo unspecified)
MIC [2]: 6.25 µg/mL (≈ 13.1 µM)

CC[C@@H](CO)NCCN[C@@H](CC)CO [ETHAMBUTOL HYDROCHLORIDE]
MIC [3]: 1.45 µM

O=C(O)c1ccc(N2C(=O)CSC23C(=O)Nc2ccc(F)cc23)cc1O (stereo unspecified)
inhibition of growth at 12.5 µg/mL [4]: 98%

CCn1c(C(=O)NN2C(=O)CSC2c2ccc([N+](=O)[O-])cc2)cc(=O)c2cc(F)c(N3CCNCC3)cc21 (stereo unspecified)
MIC [5]: 16.3 µM (≈ 8.8 µg/mL)

Cc1nc(/N=C2\C(=O)Nc3ccccc32)sc1C(=O)NN1C(=O)CSC1c1ccc(Cl)cc1 (stereo unspecified)
MIC [6]: 0.78 µM (≈ 0.388 µg/mL)

Cc1nc2ccccc2c(=O)n1CCNC1=NC(=O)/C(=C/c2ccc([N+](=O)[O-])cc2)S1
inhibition at 6.25 µg/mL [7]: 99%

N#CSc1ccc2nc(NC(=O)CN3C(=O)/C(=C/c4cccc(Br)c4)SC3=S)sc2c1
MIC [8]: 25 µg/mL (≈ 45.7 µM)

Cc1ccc(N2C(=O)CSC23C(=O)N(CN2CCOCC2)c2ccc(C)cc23)cc1 (stereo unspecified)
inhibition of growth at 12.5 µg/mL [4]: 90%

CC1Oc2ccccc2C=C1/C=C1\SC(=S)NC1=O (stereo unspecified)
MIC [3]: 0.36 µM (≈ 0.104 µg/mL)

O=C1NC(=S)S/C1=C\c1ccc([N+](=O)[O-])cc1
IC90 [9]: 22.3 µg/mL (≈ 83.7 µM)

O=C1CSC(c2c(-c3ccccc3)[nH]c3ccc(Cl)cc23)N1c1nc(-c2cc3cc(Br)ccc3oc2=O)cs1 (stereo unspecified)
inhibition of growth at 12.5 µg/mL [10]: 80%

NNC(=O)c1ccncc1 [ISONIAZID]
MIC [11]: 1.6 µg/mL (≈ 11.7 µM) | MIC [12]: 0.2 µg/mL (≈ 1.46 µM) | MIC [13]: 1.25 µg/mL (≈ 9.11 µM) | MIC [3]: 0.64 µM (≈ 0.0878 µg/mL) | zone of inhibition at 20 µg/mL [14]: 31 mm | MIC [15]: 0.56 µg/mL (≈ 4.08 µM) | MIC [16]: 0.72 µM (≈ 0.0987 µg/mL) | MIC [17]: 12.5 µg/mL (≈ 91.1 µM)

CC1SC(c2ccc(O)cc2)N(Nc2nc(-c3ccccc3)c(C#N)c(=O)n2C)C1=O (stereo unspecified)
inhibition of growth at 12.5 µg/mL [18]: 44%

O=C(NN1C(=O)CSC1c1ccc(O)cc1)c1coc2ccc3ccccc3c12 (stereo unspecified)
MIC [19]: 50 µg/mL (≈ 124 µM)

COc1ccc(C(CNC(=O)CNN2C(=O)CSC2c2ccc(O)c(OC)c2)C2(O)CCCCC2)cc1 (stereo unspecified)
inhibition of growth at 16 µg/mL [20]: 99%

O=C(O)CCCCCC1NC(=O)CS1 (stereo unspecified)
MIC [21]: 0.6 µM (≈ 0.13 µg/mL) | MIC [22]: 1.56 µM (≈ 0.339 µg/mL) | MIC [23]: 0.096 µM (≈ 0.0209 µg/mL) | MIC [24]: 1.56 µM (≈ 0.339 µg/mL)

O=C(NN1C(=O)CSC1c1ccc([N+](=O)[O-])cc1)c1coc2ccc3ccccc3c12 (stereo unspecified)
MIC [19]: 50 µg/mL (≈ 115 µM)

Cc1nc(/N=C2\C(=O)Nc3ccccc32)sc1C(=O)NN1C(=O)CSC1c1ccccc1Cl (stereo unspecified)
MIC [6]: 0.78 µM (≈ 0.388 µg/mL)

O=C(NN1C(=O)CSC1c1cccc([N+](=O)[O-])c1)c1coc2ccc3ccccc3c12 (stereo unspecified)
MIC [19]: 50 µg/mL (≈ 115 µM)

CN1C(=O)/C(=C/c2ccccc2F)S/C1=N/NC(=O)c1ccncc1
IC90 [25]: 2.95 µg/mL (≈ 8.28 µM) | CC50 at 72 h [26]: 15.5 µg/mL (≈ 43.6 µM)

COc1ccc(C(=O)Nc2ccc(C(=O)NN3C(=O)CSC3c3ccccc3)cc2)cc1 (stereo unspecified)
inhibition of growth at 6.25 µg/mL [27]: 90%

O=C1CSC(c2cc3ccccc3nc2Cl)N1c1ccc(F)cc1 (stereo unspecified)
inhibition at 12.5 µg/mL [28]: 99%

O=C(NN1C(=O)CSC1c1ccccc1O)c1coc2ccc3ccccc3c12 (stereo unspecified)
MIC [19]: 50 µg/mL (≈ 124 µM)

O=C(CNNC(=O)c1ccncc1)COc1ccc(/C=C2\SC(=O)NC2=O)cc1
MIC [29]: 50 µg/mL (≈ 121 µM)
